From ChEMBL document CHEMBL1201862, “PubChem BioAssay data set” (2004)
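Briefly, cells in 96-well plates were exposed to five compound concentrations for 48 h, and endpoints were estimated by linear interpolation. Here, GI50 denotes the concentration required for 50% inhibition of growth.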 Calls of active or inactive are those of the source. Rule as the data show it: active = GI50 up to about 1.1 µM and inactive = higher.

Tests used:
Assay in all cases: NCI-60 cell line screen, 48 h
786-0 = tested on: 786-0
UO-31 = tested on: UO-31
SK-MEL-2 = tested on: SK-MEL-2
NCI-H522 = tested on: NCI-H522
DMS-273 = tested on: DMS-273
SK-OV-3 = tested on: SK-OV-3
RXF 393 = tested on: RXF 393
U-251 = tested on: U-251
A549 = tested on: A549
NCI-H226 = tested on: NCI-H226
TK-10 = tested on: TK-10
SK-MEL-5 = tested on: SK-MEL-5
A498 = tested on: A498
HL-60 = tested on: HL-60
SF-268 = tested on: SF-268
SNB-19 = tested on: SNB-19
PC-3 = tested on: PC-3
NCI/ADR-RES = tested on: NCI/ADR-RES
MDA-MB-231 = tested on: MDA-MB-231
MCF7 = tested on: MCF7

| Structure (SMILES) | GI50 (786-0) | GI50 (UO-31) | GI50 (SK-MEL-2) | GI50 (NCI-H522) | GI50 (DMS-273) | GI50 (SK-OV-3) | GI50 (RXF 393) | GI50 (U-251) | GI50 (A549) | GI50 (NCI-H226) | GI50 (TK-10) | GI50 (SK-MEL-5) | GI50 (A498) | GI50 (HL-60) | GI50 (SF-268) | GI50 (SNB-19) | GI50 (PC-3) | GI50 (NCI/ADR-RES) | GI50 (MDA-MB-231) | GI50 (MCF7) |
| --- | --- | --- | --- | --- | --- | --- | --- | --- | --- | --- | --- | --- | --- | --- | --- | --- | --- | --- | --- | --- |
| O=S(=O)(c1ccccc1)N1CCC1c1ccccc1 (stereo not given) | > 100 µM (inactive) | 29.6 µM (inactive) | > 100 µM (inactive) | 98.9 µM (inactive) | > 100 µM (inactive) | > 100 µM (inactive) | > 100 µM (inactive) | > 100 µM (inactive) | > 100 µM (inactive) | > 100 µM (inactive) | > 100 µM (inactive) | > 100 µM (inactive) | > 100 µM (inactive) | 6.34 µM (inactive) | 87.1 µM (inactive) | > 100 µM (inactive) | – | – | – | – |
| CCN1c2ccccc2-c2c3c1cc(C)cc3c1ccccc1[n+]2CC | 1.59 µM (inactive) | 7.13 µM (inactive) | 1.21 µM (inactive) | 1.26 µM (inactive) | 0.385 µM (active) | 1.83 µM (inactive) | 2.96 µM (inactive) | 0.571 µM (active) | 2.4 µM (inactive) | 1.75 µM (inactive) | 2.56 µM (inactive) | 0.52 µM (active) | 3.26 µM (inactive) | 1.16 µM (inactive) | 0.522 µM (active) | 0.528 µM (active) | – | – | – | – |
| C/C(=N\NC(N)=S)C(CN(CC(C)C)CC(C)C)C(=O)Nc1ccc(C)cc1C (stereo not given) | > 100 µM (inactive) | > 100 µM (inactive) | > 100 µM (inactive) | > 100 µM (inactive) | > 100 µM (inactive) | > 100 µM (inactive) | > 100 µM (inactive) | > 100 µM (inactive) | > 100 µM (inactive) | > 100 µM (inactive) | > 100 µM (inactive) | > 100 µM (inactive) | > 100 µM (inactive) | > 100 µM (inactive) | > 100 µM (inactive) | > 100 µM (inactive) | – | – | – | – |
| COc1cccc2c1C(=O)c1c(O)c3c(c(O)c1C2=O)CC(O)(C(C)=O)CC3OC1CC([N+](C)(C)C)C(O)C(C)O1 (stereo not given) | > 100 µM (inactive) | > 100 µM (inactive) | > 100 µM (inactive) | 31.3 µM (inactive) | 27.5 µM (inactive) | > 100 µM (inactive) | > 100 µM (inactive) | 55.1 µM (inactive) | > 100 µM (inactive) | 80.7 µM (inactive) | > 100 µM (inactive) | > 100 µM (inactive) | > 100 µM (inactive) | 24 µM (inactive) | > 100 µM (inactive) | > 100 µM (inactive) | – | – | – | – |
| N#C[C-](C#N)[n+]1ccc(Cl)cc1 | 18.7 µM (inactive) | 22.8 µM (inactive) | – | 3.19 µM (inactive) | 18.7 µM (inactive) | 34 µM (inactive) | 16.7 µM (inactive) | 16.2 µM (inactive) | 34.3 µM (inactive) | 25.3 µM (inactive) | 22.3 µM (inactive) | 16.1 µM (inactive) | 28.7 µM (inactive) | 4.27 µM (inactive) | 14.4 µM (inactive) | 32.1 µM (inactive) | – | – | – | – |
| CCCCCCCC(=O)OCC1OC(n2cc(F)c(=O)[nH]c2=O)C(N)C(O)C1O (stereo not given) | > 100 µM (inactive) | > 100 µM (inactive) | > 100 µM (inactive) | > 100 µM (inactive) | > 100 µM (inactive) | > 100 µM (inactive) | > 100 µM (inactive) | > 100 µM (inactive) | > 100 µM (inactive) | > 100 µM (inactive) | – | > 100 µM (inactive) | > 100 µM (inactive) | > 100 µM (inactive) | > 100 µM (inactive) | > 100 µM (inactive) | – | – | – | – |
| COc1cc(C(=C2SCCS2)c2nccc3cc(OC)c(OC)cc23)c([N+](=O)[O-])cc1OC | 59.3 µM (inactive) | 27.2 µM (inactive) | > 100 µM (inactive) | 36.6 µM (inactive) | 34.4 µM (inactive) | 65.9 µM (inactive) | > 100 µM (inactive) | 64.7 µM (inactive) | 39.4 µM (inactive) | 80.4 µM (inactive) | > 100 µM (inactive) | 23.7 µM (inactive) | > 100 µM (inactive) | 10.5 µM (inactive) | 80.9 µM (inactive) | > 100 µM (inactive) | – | – | – | – |
| N#CC(C#N)=Cc1ccc(Oc2ccccc2)cc1 | 18.2 µM (inactive) | 25.9 µM (inactive) | 24.3 µM (inactive) | 23.7 µM (inactive) | 18.3 µM (inactive) | > 100 µM (inactive) | 30.5 µM (inactive) | 23.4 µM (inactive) | > 100 µM (inactive) | > 43.9 µM (inactive) | 55.5 µM (inactive) | 24.5 µM (inactive) | > 100 µM (inactive) | 23 µM (inactive) | 27.9 µM (inactive) | 37.3 µM (inactive) | – | – | – | – |
| S=c1nc(N2CCCCC2)ss1 | 20.9 µM (inactive) | 17.7 µM (inactive) | 20 µM (inactive) | – | 17.5 µM (inactive) | > 100 µM (inactive) | 16.7 µM (inactive) | 18.2 µM (inactive) | 28.4 µM (inactive) | 43.9 µM (inactive) | 40.6 µM (inactive) | 16.6 µM (inactive) | 20.2 µM (inactive) | 13.5 µM (inactive) | 21.1 µM (inactive) | 27.6 µM (inactive) | – | – | – | – |
| COS(=O)CCOC(=O)c1ccccc1SSc1ccccc1C(=O)OCCS(=O)OC (stereo not given) | 20.3 µM (inactive) | 15.5 µM (inactive) | 37.7 µM (inactive) | 4.78 µM (inactive) | 26.4 µM (inactive) | > 100 µM (inactive) | 14.2 µM (inactive) | 69.7 µM (inactive) | > 100 µM (inactive) | – | 81.8 µM (inactive) | 67 µM (inactive) | > 100 µM (inactive) | – | 32.3 µM (inactive) | > 100 µM (inactive) | – | – | – | – |
| C/C(=N\NC(=O)CC(=O)Nc1ccc(Cl)cc1)c1cc2ccccc2oc1=O | > 100 µM (inactive) | > 100 µM (inactive) | – | > 100 µM (inactive) | > 100 µM (inactive) | > 100 µM (inactive) | > 100 µM (inactive) | > 100 µM (inactive) | > 100 µM (inactive) | > 100 µM (inactive) | > 100 µM (inactive) | > 100 µM (inactive) | – | > 100 µM (inactive) | – | > 100 µM (inactive) | – | – | – | – |
| CN(C)CC1(C)CC/C(=C\c2ccccc2)C1=O (stereo not given) | > 100 µM (inactive) | > 100 µM (inactive) | > 100 µM (inactive) | 39.8 µM (inactive) | > 100 µM (inactive) | – | > 100 µM (inactive) | > 100 µM (inactive) | > 100 µM (inactive) | > 100 µM (inactive) | > 100 µM (inactive) | > 100 µM (inactive) | > 100 µM (inactive) | – | > 100 µM (inactive) | 44.1 µM (inactive) | – | – | – | – |
| Cc1nc2ccccc2n1CCc1nc2ccccc2[nH]1 | > 100 µM (inactive) | > 100 µM (inactive) | > 100 µM (inactive) | > 100 µM (inactive) | – | > 100 µM (inactive) | > 100 µM (inactive) | > 100 µM (inactive) | > 100 µM (inactive) | 31.6 µM (inactive) | > 100 µM (inactive) | > 100 µM (inactive) | > 100 µM (inactive) | > 100 µM (inactive) | > 100 µM (inactive) | > 100 µM (inactive) | > 100 µM (inactive) | > 100 µM (inactive) | > 100 µM (inactive) | > 100 µM (inactive) |
| Cc1ccc(S(=O)(=O)CNC(=S)CCCC(=S)NCS(=O)(=O)c2ccc(C)cc2)cc1 | > 100 µM (inactive) | 35.2 µM (inactive) | – | 41.4 µM (inactive) | 44.2 µM (inactive) | > 100 µM (inactive) | 79.4 µM (inactive) | 59 µM (inactive) | > 100 µM (inactive) | > 100 µM (inactive) | > 100 µM (inactive) | 79.1 µM (inactive) | > 100 µM (inactive) | 16.1 µM (inactive) | > 100 µM (inactive) | > 100 µM (inactive) | – | – | – | – |
| CCCN(CCCCC(NC(C)=O)C(=O)NCc1ccccc1)C(=O)N(C)N=O (stereo not given) | > 100 µM (inactive) | > 100 µM (inactive) | > 100 µM (inactive) | > 100 µM (inactive) | > 100 µM (inactive) | > 100 µM (inactive) | > 100 µM (inactive) | > 100 µM (inactive) | > 100 µM (inactive) | > 100 µM (inactive) | > 100 µM (inactive) | > 100 µM (inactive) | > 100 µM (inactive) | – | > 100 µM (inactive) | > 100 µM (inactive) | – | – | – | – |
| CCOC(=O)C(C/C=C/CO)N(C)C(=O)OC(C)(C)C (stereo not given) | > 100 µM (inactive) | > 100 µM (inactive) | > 100 µM (inactive) | 10.1 µM (inactive) | – | > 100 µM (inactive) | > 100 µM (inactive) | > 100 µM (inactive) | > 100 µM (inactive) | > 100 µM (inactive) | > 100 µM (inactive) | > 100 µM (inactive) | > 100 µM (inactive) | > 100 µM (inactive) | 92.9 µM (inactive) | > 100 µM (inactive) | > 100 µM (inactive) | > 100 µM (inactive) | > 100 µM (inactive) | > 100 µM (inactive) |
| Cc1c2cc[n+](C)cc2c(C)c2c1[nH]c1ccc(OC(C)(C)C)cc12 | > 100 µM (inactive) | > 100 µM (inactive) | > 100 µM (inactive) | > 100 µM (inactive) | > 100 µM (inactive) | > 100 µM (inactive) | > 100 µM (inactive) | > 100 µM (inactive) | > 100 µM (inactive) | > 100 µM (inactive) | > 100 µM (inactive) | > 100 µM (inactive) | > 100 µM (inactive) | > 100 µM (inactive) | > 100 µM (inactive) | – | – | – | – | – |
